Measured values from publication PMC8386105, “A mechanism-inspired UDP-N-acetylglucosamine pyrophosphorylase inhibitor” (RSC Chemical Biology, 2020).

Legend:
[1] = molecular target: T1, UDP-N-acetylglucosamine pyrophosphorylase (AfUAP1) (Aspergillus fumigatus, UniProt Q4WAR0)
T1 construct: gene AFUA_7G02180
T1 sequence (Q4WAR0 1-509): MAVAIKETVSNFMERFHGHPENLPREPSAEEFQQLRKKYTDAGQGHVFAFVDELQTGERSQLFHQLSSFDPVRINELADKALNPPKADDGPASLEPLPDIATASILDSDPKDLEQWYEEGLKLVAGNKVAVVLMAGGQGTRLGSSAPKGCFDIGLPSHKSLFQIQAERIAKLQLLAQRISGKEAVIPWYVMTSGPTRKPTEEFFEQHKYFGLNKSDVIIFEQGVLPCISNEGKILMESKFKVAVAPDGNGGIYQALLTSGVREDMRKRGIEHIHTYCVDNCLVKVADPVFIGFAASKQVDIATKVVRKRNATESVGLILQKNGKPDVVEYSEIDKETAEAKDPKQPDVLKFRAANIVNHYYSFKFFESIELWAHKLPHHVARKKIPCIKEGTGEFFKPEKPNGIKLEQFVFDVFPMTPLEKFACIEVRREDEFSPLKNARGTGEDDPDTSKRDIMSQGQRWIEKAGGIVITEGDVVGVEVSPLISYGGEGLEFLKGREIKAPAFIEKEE

[2] = molecular target: T1, UDP-N-acetylglucosamine pyrophosphorylase (AfUAP1); experiment: HPAEC assay of UDP-GlcNAc formation by recombinant enzyme; type: biochemical

IC50 [2] [µM]	Compound	X-ray crystal structure, 1.75 Å (PPi and Mg2+ soak) [1]
	O=P(O)(O)OP(=O)(O)O [pyrophosphate]	is tethered by interactions with positively charged residues, such as Arg141, Lys437 and Lys148
115 ± 40	O=c1ccn([C@@H]2O[C@H](COP(=O)(O)CP(=O)(O)OP(=O)(O)O)[C@@H](O)[C@H]2O)c(=O)[nH]1 [compound 5, meUTP]	
